Like-named read-outs stand apart in the source and are kept apart here.
Biological target: human GPR52 (Homo sapiens, UniProt Q9Y2T5)
Experiment: GPR52 Agonist Functional cAMP Assay;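 note: HEKf cells transduced with GPR52 BacMam for 24 h, 2000 per well, exposed to compounds 30 min at 37° C with 0.5 mM IBMX, cAMP read by HTRF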
Conditions: for EC50: pEC50 average, HEKf cells infected with human GPR52 BacMam virus, cAMP HTRF, 30 min at 37° C.
[1] = maximal response normalised to DMSO (0%) and maximal compound 7m (J. Med. Chem., 2014, 57, 5226) response (100%)

Sequence of human GPR52 (Q9Y2T5 whole entry): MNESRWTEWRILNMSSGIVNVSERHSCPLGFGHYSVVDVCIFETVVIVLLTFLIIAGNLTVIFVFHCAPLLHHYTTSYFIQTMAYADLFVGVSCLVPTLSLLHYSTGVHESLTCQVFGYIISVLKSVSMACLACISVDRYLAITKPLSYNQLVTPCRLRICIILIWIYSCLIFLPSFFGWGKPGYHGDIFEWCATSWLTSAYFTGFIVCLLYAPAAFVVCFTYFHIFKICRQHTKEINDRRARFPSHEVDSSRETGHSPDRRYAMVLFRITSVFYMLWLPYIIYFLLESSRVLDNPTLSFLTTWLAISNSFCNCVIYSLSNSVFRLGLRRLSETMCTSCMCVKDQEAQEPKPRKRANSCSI
Description: Following BacMam infection, cells were pelleted by centrifugation (335 g, 5 min), resuspended in cell freezing medium (Sigma) and frozen at −150° C. until required. On experiment day, 25 nL GPR52 compound dilutions, prepared in DMSO, were stamped onto proxiplates (PerkinElmer) by a LabCyte ECHO acoustic dispenser. Frozen cells were thawed and resuspended in assay stimulation buffer (Cisbio) containing 0.5 mM 3-iso-butyl-1-methylxanthine (IBMX, Sigma) to achieve a density of 2000 cells per well. 10 μl cells were added to assay plates using a Multidrop Combi Reagent Dispenser (ThermoFisher) before centrifugation (335 g, 1 min). Cells were incubated with compounds at 37° C. for 30 min prior to addition of cAMP detection reagents (HiRange cAMP kit, Cisbio) which were prepared according to the manufacturer's instructions. Plates were shaken for 1 h at room temperature before reading on a PHERAstar FS plate reader (BMG Labtech) using standard HTRF settings.

Row | Emax [1] | EC50 | SMILES | Emax
1 | 44% | 794 nM | COc1cc(Cc2cc(-n3ncc4c3CCNC4=O)ccn2)cc(C(F)(F)F)c1 [Example 57, 1-(2-(3-methoxy-5-(trifluoromethyl)benzyl)pyridin-4-yl)-1,5,6,7-tetrahydro-4H-pyrazolo[4,3-c]pyridin-4-one] | –
2 | 79% | 100 nM | O=C1NCCc2c1cnn2-c1ccnc(Cc2cc(F)c(Cl)c(F)c2)c1 [Example 58, 1-(2-(4-chloro-3,5-difluorobenzyl)pyridin-4-yl)-1,5,6,7-tetrahydro-4H-pyrazolo[4,3-c]pyridin-4-one] | –
3 | 79% | 79.4 nM | O=C1NCCc2c1cnn2-c1ccnc(Cc2ccc3sccc3c2)c1 [Example 59, 1-(2-(benzo[b]thiophen-5-ylmethyl)pyridin-4-yl)-1,5,6,7-tetrahydro-4H-pyrazolo[4,3-c]pyridin-4-one] | –
4 | 83% | 398 nM | COc1cc(Cc2cc(-n3ncc4c3CCNC4=O)ccn2)ccc1C(F)(F)F [Example 60, 1-(2-(3-methoxy-4-(trifluoromethyl)benzyl)pyridin-4-yl)-1,5,6,7-tetrahydro-4H-pyrazolo[4,3-c]pyridin-4-one] | –
5 | 99% | 50.1 nM | O=C1NCCc2c1cnn2-c1ccnc(Cc2cc(F)cc(S(F)(F)(F)(F)F)c2)c1 [Example 61, 1-(2-(3-fluoro-5-(pentafluoro-λ^6-sulfaneyl)benzyl)pyridin-4-yl)-1,5,6,7-tetrahydro-4H-pyrazolo[4,3-c]pyridin-4-one] | –
6 | 94% | 79.4 nM | O=C1NCCc2c1cnn2-c1ccnc(Cc2cc(F)cc(OC(F)F)c2)c1 [Example 62, 1-(2-(3-(difluoromethoxy)-5-fluorobenzyl)pyridin-4-yl)-1,5,6,7-tetrahydro-4H-pyrazolo[4,3-c]pyridin-4-one] | –
7 | 70% | 126 nM | O=C1NCCc2c1cnn2-c1ccnc(Cc2ccc(OC(F)F)c(F)c2)c1 [Example 63, 1-(2-(4-(difluoromethoxy)-3-fluorobenzyl)pyridin-4-yl)-1,5,6,7-tetrahydro-4H-pyrazolo[4,3-c]pyridin-4-one] | –
8 | 94% | 20 nM | O=C1NCCc2c1cnn2-c1ccnc(Cc2cc(F)c(F)c(C(F)(F)F)c2)c1 [Example 64, 1-(2-(3,4-difluoro-5-(trifluoromethyl)benzyl)pyridin-4-yl)-1,5,6,7-tetrahydro-4H-pyrazolo[4,3-c]pyridin-4-one] | –
9 | 100% | 25.1 nM | O=C1NCCc2c1cnn2-c1ccnc(Cc2cc(F)c(F)c(Cl)c2)c1 [Example 66, 1-(2-(3-chloro-4,5-difluorobenzyl)pyridin-4-yl)-1,5,6,7-tetrahydro-4H-pyrazolo[4,3-c]pyridin-4-one] | –
10 | 53% | 1580 nM | O=C1NCCc2c1cnn2-c1ccnc(Cc2cnc3ccccc3c2)c1 [Example 67, 1-(2-(quinolin-3-ylmethyl)pyridin-4-yl)-1,5,6,7-tetrahydro-4H-pyrazolo[4,3-c]pyridin-4-one] | –
11 | 60% | 126 nM | O=C1NCCc2c1cnn2-c1ccnc(Cc2cc3ccccc3s2)c1 [Example 69, 1-(2-(benzo[b]thiophen-2-ylmethyl)pyridin-4-yl)-1,5,6,7-tetrahydro-4H-pyrazolo[4,3-c]pyridin-4-one] | –
12 | 74% | 316 nM | O=C1NCCc2c1cnn2-c1ccnc(Cc2cc(F)c(C(F)(F)F)c(F)c2)c1 [Example 70, 1-(2-(3,5-difluoro-4-(trifluoromethyl)benzyl)pyridin-4-yl)-1,5,6,7-tetrahydro-4H-pyrazolo[4,3-c]pyridin-4-one] | –
13 | 91% | 20 nM | CC(C)c1cc(F)cc(Cc2cc(-n3ncc4c3CCNC4=O)ccn2)c1 [Example 71, 1-(2-(3-fluoro-5-isopropylbenzyl)pyridin-4-yl)-1,5,6,7-tetrahydro-4H-pyrazolo[4,3-c]pyridin-4-one] | –
14 | 83% | 1260 nM | COc1ncc(Cc2cc(-n3ncc4c3CCNC4=O)ccn2)cc1F [Example 72, 1-(2-((5-fluoro-6-methoxypyridin-3-yl)methyl)pyridin-4-yl)-1,5,6,7-tetrahydro-4H-pyrazolo[4,3-c]pyridin-4-one] | –
15 | 88% | 50.1 nM | O=C1NCCc2c1cnn2-c1ccnc(Cc2cc(Cl)c(F)c(C(F)(F)F)c2)c1 [Example 73, 1-(2-(3-chloro-4-fluoro-5-(trifluoromethyl)benzyl)pyridin-4-yl)-1,5,6,7-tetrahydro-4H-pyrazolo[4,3-c]pyridin-4-one] | –
16 | 53% | 501 nM | O=C1NCCc2c1cnn2-c1ccnc(Cc2cc(F)cc(C3(C(F)(F)F)CC3)c2)c1 [Example 74, 1-(2-(3-fluoro-5-(1-(trifluoromethyl)cyclopropyl)benzyl)pyridin-4-yl)-1,5,6,7-tetrahydro-4H-pyrazolo[4,3-c]pyridin-4-one] | –

Row | Emax [1] | EC50 | SMILES | Emax
17 | 94% | 79.4 nM | Cc1cc(Cc2cc(-n3nc(C)c4c3CCNC4=O)ccn2)cnc1F [Example 76, 1-(2-((6-fluoro-5-methylpyridin-3-yl)methyl)pyridin-4-yl)-3-methyl-1,5,6,7-tetrahydro-4H-pyrazolo[4,3-c]pyridin-4-one] | –
18 | 95% | 15.8 nM | Cc1nn(-c2ccnc(Cc3cc(F)c(F)c(F)c3)c2)c2c1C(=O)NCC2 [Example 77, 3-methyl-1-(2-(3,4,5-trifluorobenzyl)pyridin-4-yl)-1,5,6,7-tetrahydro-4H-pyrazolo[4,3-c]pyridin-4-one] | –
19 | 94% | 20 nM | Cc1nn(-c2ccnc(Cc3cccc(C(F)(F)F)c3)c2)c2c1C(=O)NCC2 [Example 78, 3-methyl-1-(2-(3-(trifluoromethyl)benzyl)pyridin-4-yl)-1,5,6,7-tetrahydro-4H-pyrazolo[4,3-c]pyridin-4-one] | –
20 | 99% | 12.6 nM | Cc1nn(-c2ccnc(Cc3cc(F)cc(Cl)c3)c2)c2c1C(=O)NCC2 [Example 79, 1-(2-(3-chloro-5-fluorobenzyl)pyridin-4-yl)-3-methyl-1,5,6,7-tetrahydro-4H-pyrazolo[4,3-c]pyridin-4-one] | –
21 | 97% | 10 nM | Cc1nn(-c2ccnc(Cc3ccc(F)c(Cl)c3)c2)c2c1C(=O)NCC2 [Example 80, 1-(2-(3-chloro-4-fluorobenzyl)pyridin-4-yl)-3-methyl-1,5,6,7-tetrahydro-4H-pyrazolo[4,3-c]pyridin-4-one] | –
22 | 70% | 10 nM | Cc1nn(-c2ccnc(Cc3ccc(OC(F)F)c(F)c3)c2)c2c1C(=O)NCC2 [Example 81, 1-(2-(4-(difluoromethoxy)-3-fluorobenzyl)pyridin-4-yl)-3-methyl-1,5,6,7-tetrahydro-4H-pyrazolo[4,3-c]pyridin-4-one] | –
23 | 93% | 25.1 nM | Cc1cc(Cc2ccnc(-n3nc(C)c4c3CCNC4=O)c2)cnc1F [Example 83, 1-(4-((6-fluoro-5-methylpyridin-3-yl)methyl)pyridin-2-yl)-3-methyl-1,5,6,7-tetrahydro-4H-pyrazolo[4,3-c]pyridin-4-one] | –
24 | 96% | 63.1 nM | Cc1nn(-c2ccnc(Cc3cc(F)cc(C#N)c3)c2)c2c1C(=O)NCC2 [Example 85, 3-fluoro-5-((4-(3-methyl-4-oxo-4,5,6,7-tetrahydro-1H-pyrazolo[4,3-c]pyridin-1-yl)pyridin-2-yl)methyl)benzonitrile] | –
25 | 102% | 3.16 nM | Cc1nn(-c2ccnc(Cc3cc(F)c(F)c(C(F)(F)F)c3)c2)c2c1C(=O)NCC2 [Example 86, 1-(2-(3,4-difluoro-5-(trifluoromethyl)benzyl)pyridin-4-yl)-3-methyl-1,5,6,7-tetrahydro-4H-pyrazolo[4,3-c]pyridin-4-one] | –
26 | 95% | 6.31 nM | Cc1nn(-c2ccnc(Cc3cc(F)c(Cl)c(C(F)(F)F)c3)c2)c2c1C(=O)NCC2 [Example 87, 1-(2-(4-chloro-3-fluoro-5-(trifluoromethyl)benzyl)pyridin-4-yl)-3-methyl-1,5,6,7-tetrahydro-4H-pyrazolo[4,3-c]pyridin-4-one] | –
27 | 100% | 5.01 nM | Cc1nn(-c2ccnc(Cc3cc(Cl)c(F)c(C(F)(F)F)c3)c2)c2c1C(=O)NCC2 [Example 88, 1-(2-(3-chloro-4-fluoro-5-(trifluoromethyl)benzyl)pyridin-4-yl)-3-methyl-1,5,6,7-tetrahydro-4H-pyrazolo[4,3-c]pyridin-4-one] | –
28 | 87% | 20 nM | Cc1nn(-c2ccnc(Cc3cc(F)c(Cl)c(F)c3)c2)c2c1C(=O)NCC2 [Example 90, 1-(2-(4-chloro-3,5-difluorobenzyl)pyridin-4-yl)-3-methyl-1,5,6,7-tetrahydro-4H-pyrazolo[4,3-c]pyridin-4-one] | –
29 | 74% | 631 nM | COc1ccc(Cc2cc(-n3nc(C)c4c3CCNC4=O)ccn2)cn1 [Example 92, 1-(2-((6-methoxypyridin-3-yl)methyl)pyridin-4-yl)-3-methyl-1,5,6,7-tetrahydro-4H-pyrazolo[4,3-c]pyridin-4-one] | –
30 | 83% | 100 nM | COc1ncc(Cc2cc(-n3nc(C)c4c3CCNC4=O)ccn2)cc1F [Example 93, 1-(2-((5-fluoro-6-methoxypyridin-3-yl)methyl)pyridin-4-yl)-3-methyl-1,5,6,7-tetrahydro-4H-pyrazolo[4,3-c]pyridin-4-one] | –
31 | 78% | 398 nM | Cc1nn(-c2ccnc(Cc3ccc(OC(F)F)nc3)c2)c2c1C(=O)NCC2 [Example 94, 1-(2-((6-(difluoromethoxy)pyridin-3-yl)methyl)pyridin-4-yl)-3-methyl-1,5,6,7-tetrahydro-4H-pyrazolo[4,3-c]pyridin-4-one] | –

Row | SMILES | Emax [1] | EC50 | Emax
32 | Cc1nn(-c2ccnc(Cc3cc(F)c(F)c(Cl)c3)c2)c2c1C(=O)NCC2 [Example 84, 1-(2-(3-chloro-4,5-difluorobenzyl)pyridin-4-yl)-3-methyl-1,5,6,7-tetrahydro-4H-pyrazolo[4,3-c]pyridin-4-one] | – | 2.51 nM | 95%

Source: patent publication US20230002374A1, “GPR52 MODULATOR COMPOUNDS” (Heptares Therapeutics Limited, priority 2019, published 2023)
